Reference: patent EP4722207A1, “OXOISOINDOLINYL-SUBSTITUTED TETRAHYDROPYRIMIDINEDIONE DERIVATIVE AND USE THEREOF” (Gluetacs Therapeutics (Shanghai) Co., Ltd., priority 2023, dated 2024)

Legend:
[1] = tested on: Jurkat; assay: Cell viability assay (CellTiter-Meiluncell Luminescent), tumor cell proliferation, Jurkat; details: Homo sapiens, 96 h, read-out: inhibitory activity (IC50, nM) against tumor cells proliferation, Jurkat
[2] = target: T1, CK1α (Homo sapiens, UniProt P48729+Q96SW2); assay: Western-blot assay, substrate protein degradation in hPBMCs: CK1α; assay type: cell-based; details: compounds at 50 nM and 500 nM, 24 hours
T1 construct: effects of the compounds of the present disclosure on the expression of target proteins in cells; endogenous in cells; host or cells: human PBMCs (hPBMCs)

[3] = target: T2, GSPT1 (Homo sapiens, UniProt P15170+Q96SW2); assay: Western-blot assay, substrate protein degradation in hPBMCs: GSPT1; assay type: cell-based; details: compounds at 50 nM and 500 nM, 24 hours
T2 construct: effects of the compounds of the present disclosure on the expression of target proteins in cells; endogenous in cells; host or cells: human PBMCs (hPBMCs)

[4] = tested on: MM.1S; assay: Cell viability assay (CellTiter-Meiluncell Luminescent), tumor cell proliferation, MM.1S; details: Homo sapiens, MM1.S, 96 h, read-out: inhibitory activity (IC50, nM) against tumor cells proliferation, MM.1S
Protocol: The tumor cells used herein were cultured in a cell culture medium listed in table 2 at 37°C in an incubator with 5% CO2. Prior to experimentation, all cell lines used were correctly identified by STR profiling, and tested negative for mycoplasma contamination using a mycoplasma detection kit through routine screenings.
On the following day, the test compounds of the present disclosure were subjected to serial dilution. […] Subsequently, 0.5 µL of the test compound dilution was transferred into the 96-well plate containing the cells, with each well containing 100 µL of cell culture medium. […] Into the 96-well plate, the diluted test compounds and corresponding detection reagents were added, resulting in final test compound concentrations of 500 nM and 10 nM, respectively. The experimental procedure is described below using the diluted 2 µM test compound as an example.
(§1) After the cells were treated with the compounds of the present disclosure for a specified period, the cell viability assay reagent was added to the culture medium according to the kit's instructions to determine cell viability. […] All controls were treated using the same procedure as the compounds of the present disclosure. The growth inhibition curves for the compounds of the present disclosure were plotted using Prism GraphPad software, and the IC50 values were calculated therefrom.

[5] = target: T3, IKZF1 (Homo sapiens, UniProt Q13422+Q96SW2); assay: Western-blot assay, substrate protein degradation in hPBMCs: IKZF1; assay type: cell-based; details: compounds at 50 nM and 500 nM, 24 hours
T3 construct: effects of the compounds of the present disclosure on the expression of target proteins in cells; endogenous in cells; host or cells: human PBMCs (hPBMCs)

[6] = target: T4, IKZF3 (Homo sapiens, UniProt Q96SW2+Q9UKT9); assay: Western-blot assay, substrate protein degradation in hPBMCs: IKZF3; assay type: cell-based; details: compounds at 50 nM and 500 nM, 24 hours
T4 construct: effects of the compounds of the present disclosure on the expression of target proteins in cells; endogenous in cells; host or cells: human PBMCs (hPBMCs)

[7] = target: T5, WEE1 (Homo sapiens, UniProt P30291+Q96SW2); assay: Western-blot assay, substrate protein degradation in hPBMCs: WEE1; assay type: cell-based; details: compounds at 50 nM and 500 nM, 24 hours
T5 construct: effects of the compounds of the present disclosure on the expression of target proteins in cells; endogenous in cells; host or cells: human PBMCs (hPBMCs)

[8] = target: T6, IKZF2 (Homo sapiens, UniProt Q96SW2+Q9UKS7); assay: Western-blot assay, substrate protein degradation in hPBMCs: IKZF2; assay type: cell-based; details: compounds at 50 nM and 500 nM, 24 hours
T6 construct: effects of the compounds of the present disclosure on the expression of target proteins in cells; endogenous in cells; host or cells: human PBMCs (hPBMCs)

[9] = tested on: MGC803; assay: Cell viability assay (CellTiter-Meiluncell Luminescent), tumor cell proliferation, MGC803; details: Homo sapiens, MGC-803, 96 h, read-out: inhibitory activity (IC50, nM) against tumor cells proliferation, MGC803
Protocol: On the following day, the test compounds of the present disclosure were subjected to serial dilution. […] Subsequently, 0.5 µL of the test compound dilution was transferred into the 96-well plate containing the cells, with each well containing 100 µL of cell culture medium. […] Into the 96-well plate, the diluted test compounds and corresponding detection reagents were added, resulting in final test compound concentrations of 500 nM and 10 nM, respectively.
as §1

T2 sequence (P15170 whole entry): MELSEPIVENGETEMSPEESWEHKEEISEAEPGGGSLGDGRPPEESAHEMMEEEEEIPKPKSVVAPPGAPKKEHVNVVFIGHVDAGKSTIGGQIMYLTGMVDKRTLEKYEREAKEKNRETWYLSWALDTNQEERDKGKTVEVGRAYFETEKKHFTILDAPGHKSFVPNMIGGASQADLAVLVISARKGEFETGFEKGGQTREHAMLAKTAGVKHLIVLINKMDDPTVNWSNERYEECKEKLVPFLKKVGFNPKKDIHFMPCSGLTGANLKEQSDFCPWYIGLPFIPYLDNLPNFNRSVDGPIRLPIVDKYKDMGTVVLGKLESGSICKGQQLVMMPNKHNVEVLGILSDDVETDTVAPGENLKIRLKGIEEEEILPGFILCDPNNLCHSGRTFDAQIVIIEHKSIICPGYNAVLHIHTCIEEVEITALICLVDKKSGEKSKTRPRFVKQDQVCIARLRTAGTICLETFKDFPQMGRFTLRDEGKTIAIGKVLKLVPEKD
T2 sequence (Q96SW2 whole entry): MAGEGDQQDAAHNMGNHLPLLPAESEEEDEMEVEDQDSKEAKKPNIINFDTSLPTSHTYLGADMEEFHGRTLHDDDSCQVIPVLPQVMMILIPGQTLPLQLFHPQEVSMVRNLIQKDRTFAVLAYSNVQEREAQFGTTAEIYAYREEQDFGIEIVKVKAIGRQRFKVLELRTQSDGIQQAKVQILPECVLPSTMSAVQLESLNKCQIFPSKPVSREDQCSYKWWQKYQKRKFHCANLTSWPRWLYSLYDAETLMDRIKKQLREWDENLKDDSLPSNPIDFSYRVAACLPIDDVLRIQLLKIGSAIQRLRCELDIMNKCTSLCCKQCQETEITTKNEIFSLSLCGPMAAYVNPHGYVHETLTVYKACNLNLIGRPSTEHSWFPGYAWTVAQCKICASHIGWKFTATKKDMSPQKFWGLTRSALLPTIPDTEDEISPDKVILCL
T2 sequence (Q16531 whole entry partner): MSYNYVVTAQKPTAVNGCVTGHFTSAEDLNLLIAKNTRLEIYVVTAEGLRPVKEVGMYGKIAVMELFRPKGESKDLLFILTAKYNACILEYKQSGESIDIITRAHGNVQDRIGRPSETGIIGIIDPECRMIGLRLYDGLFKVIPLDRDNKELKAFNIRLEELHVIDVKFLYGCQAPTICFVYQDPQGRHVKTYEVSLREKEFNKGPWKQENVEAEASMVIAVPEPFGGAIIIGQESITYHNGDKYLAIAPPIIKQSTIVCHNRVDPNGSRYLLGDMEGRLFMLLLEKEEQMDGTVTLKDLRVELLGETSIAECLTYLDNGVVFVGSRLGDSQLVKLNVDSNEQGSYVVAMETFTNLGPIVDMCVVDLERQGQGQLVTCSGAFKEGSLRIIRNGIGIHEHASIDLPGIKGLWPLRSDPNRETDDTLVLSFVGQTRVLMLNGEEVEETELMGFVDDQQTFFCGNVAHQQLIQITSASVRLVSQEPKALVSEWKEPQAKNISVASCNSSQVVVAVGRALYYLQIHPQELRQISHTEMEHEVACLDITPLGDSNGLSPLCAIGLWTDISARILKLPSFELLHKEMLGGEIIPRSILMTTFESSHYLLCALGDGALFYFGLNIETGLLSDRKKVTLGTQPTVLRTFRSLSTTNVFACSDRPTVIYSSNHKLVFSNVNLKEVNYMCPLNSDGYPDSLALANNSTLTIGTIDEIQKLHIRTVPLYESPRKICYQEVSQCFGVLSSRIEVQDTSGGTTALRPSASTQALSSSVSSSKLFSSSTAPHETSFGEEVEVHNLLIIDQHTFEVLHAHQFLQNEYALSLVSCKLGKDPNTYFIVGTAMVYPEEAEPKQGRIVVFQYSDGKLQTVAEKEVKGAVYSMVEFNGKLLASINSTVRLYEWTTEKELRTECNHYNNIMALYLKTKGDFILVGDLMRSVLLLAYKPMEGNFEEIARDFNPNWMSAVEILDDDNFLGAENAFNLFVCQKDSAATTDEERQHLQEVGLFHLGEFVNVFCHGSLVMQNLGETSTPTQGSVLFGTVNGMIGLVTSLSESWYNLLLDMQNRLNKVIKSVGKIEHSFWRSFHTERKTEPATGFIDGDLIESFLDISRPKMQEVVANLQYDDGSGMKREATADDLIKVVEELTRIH
T3 sequence (Q13422 whole entry): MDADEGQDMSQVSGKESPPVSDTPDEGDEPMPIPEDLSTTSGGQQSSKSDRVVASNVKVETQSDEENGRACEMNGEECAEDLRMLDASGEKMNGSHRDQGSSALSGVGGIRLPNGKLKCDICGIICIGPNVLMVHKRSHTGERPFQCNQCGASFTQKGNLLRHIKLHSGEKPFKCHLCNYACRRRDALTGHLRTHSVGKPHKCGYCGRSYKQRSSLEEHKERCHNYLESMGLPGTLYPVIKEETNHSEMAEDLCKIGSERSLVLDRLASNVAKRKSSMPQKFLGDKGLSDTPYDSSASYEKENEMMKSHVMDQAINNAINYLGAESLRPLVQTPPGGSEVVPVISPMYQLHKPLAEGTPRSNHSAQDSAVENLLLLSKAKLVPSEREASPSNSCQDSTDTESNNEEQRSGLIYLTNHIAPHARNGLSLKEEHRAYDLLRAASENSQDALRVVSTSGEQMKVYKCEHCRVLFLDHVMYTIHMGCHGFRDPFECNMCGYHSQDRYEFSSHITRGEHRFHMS
T3 sequence (Q96SW2 whole entry): as the sequence (Q96SW2 whole entry) above
T3 sequence (Q16531 whole entry partner): as the sequence (Q16531 whole entry partner) above
T4 sequence (Q9UKT9 whole entry): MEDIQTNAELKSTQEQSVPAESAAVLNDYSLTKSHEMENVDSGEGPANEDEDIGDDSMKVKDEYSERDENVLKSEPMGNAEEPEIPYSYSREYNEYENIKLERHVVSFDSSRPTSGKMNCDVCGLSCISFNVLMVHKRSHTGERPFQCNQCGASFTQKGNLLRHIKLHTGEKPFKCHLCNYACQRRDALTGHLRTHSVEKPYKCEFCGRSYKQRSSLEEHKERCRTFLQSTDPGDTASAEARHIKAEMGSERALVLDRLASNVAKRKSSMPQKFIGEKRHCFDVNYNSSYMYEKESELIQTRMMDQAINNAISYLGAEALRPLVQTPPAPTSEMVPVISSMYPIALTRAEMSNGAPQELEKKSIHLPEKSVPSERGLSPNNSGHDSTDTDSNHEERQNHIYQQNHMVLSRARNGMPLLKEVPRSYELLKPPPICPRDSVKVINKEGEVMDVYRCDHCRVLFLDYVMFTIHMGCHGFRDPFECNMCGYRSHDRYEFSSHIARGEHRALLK
T4 sequence (Q96SW2 whole entry): as the sequence (Q96SW2 whole entry) above
T4 sequence (Q16531 whole entry partner): as the sequence (Q16531 whole entry partner) above
T6 sequence (Q9UKS7 whole entry): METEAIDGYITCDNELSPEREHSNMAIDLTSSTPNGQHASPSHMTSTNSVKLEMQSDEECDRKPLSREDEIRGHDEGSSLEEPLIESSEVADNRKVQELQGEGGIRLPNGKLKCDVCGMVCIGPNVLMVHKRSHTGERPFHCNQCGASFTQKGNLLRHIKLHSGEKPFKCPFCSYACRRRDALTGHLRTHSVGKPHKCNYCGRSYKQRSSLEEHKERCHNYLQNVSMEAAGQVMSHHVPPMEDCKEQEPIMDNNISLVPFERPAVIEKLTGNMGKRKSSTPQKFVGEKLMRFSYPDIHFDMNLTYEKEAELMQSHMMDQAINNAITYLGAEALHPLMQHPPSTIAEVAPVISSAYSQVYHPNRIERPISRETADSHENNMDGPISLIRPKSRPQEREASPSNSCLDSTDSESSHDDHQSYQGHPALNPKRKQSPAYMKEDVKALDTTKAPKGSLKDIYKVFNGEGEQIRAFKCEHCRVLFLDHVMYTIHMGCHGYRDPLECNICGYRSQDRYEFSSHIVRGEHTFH
T6 sequence (Q96SW2 whole entry): as the sequence (Q96SW2 whole entry) above
T6 sequence (Q16531 whole entry partner): as the sequence (Q16531 whole entry partner) above
T5 sequence (P30291 whole entry): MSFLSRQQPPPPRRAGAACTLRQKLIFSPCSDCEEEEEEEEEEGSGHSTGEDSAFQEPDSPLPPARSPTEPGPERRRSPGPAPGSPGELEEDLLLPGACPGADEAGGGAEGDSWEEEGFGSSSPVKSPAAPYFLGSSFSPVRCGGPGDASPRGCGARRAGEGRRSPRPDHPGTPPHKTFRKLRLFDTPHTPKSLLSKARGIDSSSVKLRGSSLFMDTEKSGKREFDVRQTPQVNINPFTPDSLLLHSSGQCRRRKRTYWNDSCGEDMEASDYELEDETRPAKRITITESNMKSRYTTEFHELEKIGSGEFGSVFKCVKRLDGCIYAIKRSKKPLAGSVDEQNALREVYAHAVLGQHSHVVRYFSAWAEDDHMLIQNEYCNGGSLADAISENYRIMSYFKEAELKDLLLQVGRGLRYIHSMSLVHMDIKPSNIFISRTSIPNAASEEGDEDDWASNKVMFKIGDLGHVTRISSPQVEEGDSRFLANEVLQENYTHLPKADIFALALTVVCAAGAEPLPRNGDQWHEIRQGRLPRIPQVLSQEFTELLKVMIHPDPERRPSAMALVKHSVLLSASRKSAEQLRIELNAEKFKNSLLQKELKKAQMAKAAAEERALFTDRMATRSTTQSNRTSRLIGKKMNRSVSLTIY
T5 sequence (Q96SW2 whole entry): as the sequence (Q96SW2 whole entry) above
T5 sequence (Q16531 whole entry partner): as the sequence (Q16531 whole entry partner) above

## Cc1ccc(C2=CCN(Cc3ccc4c(c3)CN(N3CCC(=O)NC3=O)C4=O)CC2)s1 [GT-04869, 1-(5-((4-(5-methylthiophen-2-yl)-3,6-dihydropyridin-1(2H)-yl)methyl)-1-oxoisoindolin-2-yl)dihydropyrimidine-2,4(1H,3H)-dione]
[1]
  IC50: 300 to 500 nM
[2]
  CK1α substrate protein remaining %: B ("B" is defined as 80%< substrate protein remaining %≤ 100%)
[3]
  GSPT1 substrate protein remaining %: A ("A" is defined as 0% ≤ substrate protein remaining % ≤ 80%)
[4]
  IC50: 50 to 100 nM
[5]
  IKZF1 substrate protein remaining %: A ("A" is defined as 0% ≤ substrate protein remaining % ≤ 80%)
[6]
  IKZF3 substrate protein remaining %: A ("A" is defined as 0% ≤ substrate protein remaining % ≤ 80%)
[7]
  WEE1 substrate protein remaining %: A ("A" is defined as 0% ≤ substrate protein remaining % ≤ 80%)
[8]
  IKZF2 substrate protein remaining %: A ("A" is defined as 0% ≤ substrate protein remaining % ≤ 80%)
[9]
  IC50: 300 to 500 nM

## Cc1cc(C2=CCN(Cc3ccc4c(c3)CN(N3CCC(=O)NC3=O)C4=O)CC2)cs1 [GT-04873, 1-(5-((4-(5-methylthiophen-3-yl)-3,6-dihydropyridin-1(2H)-yl)methyl)-1-oxoisoindolin-2-yl)dihydropyrimidine-2,4(1H,3H)-dione]
[1]
  IC50: 100 to 300 nM
[2]
  CK1α substrate protein remaining %: B ("B" is defined as 80%< substrate protein remaining %≤ 100%)
[3]
  GSPT1 substrate protein remaining %: A ("A" is defined as 0% ≤ substrate protein remaining % ≤ 80%)
[4]
  IC50: 50 to 100 nM
[5]
  IKZF1 substrate protein remaining %: A ("A" is defined as 0% ≤ substrate protein remaining % ≤ 80%)
[6]
  IKZF3 substrate protein remaining %: A ("A" is defined as 0% ≤ substrate protein remaining % ≤ 80%)
[7]
  WEE1 substrate protein remaining %: A ("A" is defined as 0% ≤ substrate protein remaining % ≤ 80%)
[8]
  IKZF2 substrate protein remaining %: B ("B" is defined as 80%< substrate protein remaining %≤ 100%)
[9]
  IC50: 100 to 300 nM

## O=C1CCN(N2Cc3cc(CN4CCN(C(c5ccccc5)c5ccccc5)CC4)ccc3C2=O)C(=O)N1 [GT-04889, 1-(5-((4-benzhydrylpiperazin-1-yl)methyl)-1-oxoisoindolin-2-yl)dihydropyrimidine-2,4(1H,3H)-dione]
[1]
  IC50: 300 to 500 nM
[2]
  CK1α substrate protein remaining %: B ("B" is defined as 80%< substrate protein remaining %≤ 100%)
[3]
  GSPT1 substrate protein remaining %: A ("A" is defined as 0% ≤ substrate protein remaining % ≤ 80%)
[4]
  IC50: 100 to 300 nM
[5]
  IKZF1 substrate protein remaining %: A ("A" is defined as 0% ≤ substrate protein remaining % ≤ 80%)
[6]
  IKZF3 substrate protein remaining %: A ("A" is defined as 0% ≤ substrate protein remaining % ≤ 80%)
[7]
  WEE1 substrate protein remaining %: A ("A" is defined as 0% ≤ substrate protein remaining % ≤ 80%)
[8]
  IKZF2 substrate protein remaining %: A ("A" is defined as 0% ≤ substrate protein remaining % ≤ 80%)
[9]
  IC50: 300 to 500 nM

## O=C1CCN(N2Cc3cc(CN4CC=C(c5cccs5)CC4)ccc3C2=O)C(=O)N1 [GT-04868, 1-(1-oxo-5-((4-(thiophen-2-yl)-3,6-dihydropyridin-1(2H)-yl)methyl)isoindolin-2-yl)dihydropyrimidine-2,4(1H,3H)-dione]
[1]
  IC50: 300 to 500 nM
[2]
  CK1α substrate protein remaining %: A ("A" is defined as 0% ≤ substrate protein remaining % ≤ 80%)
[3]
  GSPT1 substrate protein remaining %: A ("A" is defined as 0% ≤ substrate protein remaining % ≤ 80%)
[4]
  IC50: 100 to 300 nM
[5]
  IKZF1 substrate protein remaining %: A ("A" is defined as 0% ≤ substrate protein remaining % ≤ 80%)
[6]
  IKZF3 substrate protein remaining %: B ("B" is defined as 80%< substrate protein remaining %≤ 100%)
[7]
  WEE1 substrate protein remaining %: A ("A" is defined as 0% ≤ substrate protein remaining % ≤ 80%)
[8]
  IKZF2 substrate protein remaining %: B ("B" is defined as 80%< substrate protein remaining %≤ 100%)
[9]
  IC50: 300 to 500 nM

## O=C1CCN(N2Cc3cc(CN4CCC(N(c5ccccc5)c5ccccc5)CC4)ccc3C2=O)C(=O)N1 [GT-04939, 1-(5-((4-(diphenylamino)piperidin-1-yl)methyl)-1-oxoisoindolin-2-yl)dihydropyrimidine-2,4(1H,3H)-dione]
[1]
  IC50: 100 to 300 nM
[2]
  CK1α substrate protein remaining %: A ("A" is defined as 0% ≤ substrate protein remaining % ≤ 80%)
[3]
  GSPT1 substrate protein remaining %: A ("A" is defined as 0% ≤ substrate protein remaining % ≤ 80%)
[4]
  IC50: 10 to 50 nM
[5]
  IKZF1 substrate protein remaining %: A ("A" is defined as 0% ≤ substrate protein remaining % ≤ 80%)
[6]
  IKZF3 substrate protein remaining %: A ("A" is defined as 0% ≤ substrate protein remaining % ≤ 80%)
[7]
  WEE1 substrate protein remaining %: A ("A" is defined as 0% ≤ substrate protein remaining % ≤ 80%)
[8]
  IKZF2 substrate protein remaining %: A ("A" is defined as 0% ≤ substrate protein remaining % ≤ 80%)
[9]
  IC50: 100 to 300 nM

## O=C1CCN(N2Cc3cc(CN4CCC(Nc5ccccc5-c5ccc(Cl)cc5)CC4)ccc3C2=O)C(=O)N1 [GT-04943, 1-(5-((4-((4'-chloro-[1,1'-biphenyl]-2-yl)amino)piperidin-1-yl)methyl)-1-oxoisoindolin-2-yl)dihydropyrimidine-2,4(1H,3H)-dione]
[1]
  IC50: 100 to 300 nM
[2]
  CK1α substrate protein remaining %: B ("B" is defined as 80%< substrate protein remaining %≤ 100%)
[3]
  GSPT1 substrate protein remaining %: A ("A" is defined as 0% ≤ substrate protein remaining % ≤ 80%)
[4]
  IC50: 10 to 50 nM
[5]
  IKZF1 substrate protein remaining %: A ("A" is defined as 0% ≤ substrate protein remaining % ≤ 80%)
[6]
  IKZF3 substrate protein remaining %: A ("A" is defined as 0% ≤ substrate protein remaining % ≤ 80%)
[7]
  WEE1 substrate protein remaining %: A ("A" is defined as 0% ≤ substrate protein remaining % ≤ 80%)
[8]
  IKZF2 substrate protein remaining %: A ("A" is defined as 0% ≤ substrate protein remaining % ≤ 80%)
[9]
  IC50: 100 to 300 nM

## O=C1CCN(N2Cc3cc(CN4CC=C(c5ccsc5)CC4)ccc3C2=O)C(=O)N1 [GT-04871, 1-(1-oxo-5-((4-(thiophen-3-yl)-3,6-dihydropyridin-1(2H)-yl)methyl)isoindolin-2-yl)dihydropyrimidine-2,4(1H,3H)-dione]
[1]
  IC50: 300 to 500 nM
[2]
  CK1α substrate protein remaining %: B ("B" is defined as 80%< substrate protein remaining %≤ 100%)
[3]
  GSPT1 substrate protein remaining %: A ("A" is defined as 0% ≤ substrate protein remaining % ≤ 80%)
[4]
  IC50: 100 to 300 nM
[5]
  IKZF1 substrate protein remaining %: A ("A" is defined as 0% ≤ substrate protein remaining % ≤ 80%)
[6]
  IKZF3 substrate protein remaining %: B ("B" is defined as 80%< substrate protein remaining %≤ 100%)
[7]
  WEE1 substrate protein remaining %: A ("A" is defined as 0% ≤ substrate protein remaining % ≤ 80%)
[8]
  IKZF2 substrate protein remaining %: B ("B" is defined as 80%< substrate protein remaining %≤ 100%)
[9]
  IC50: 300 to 500 nM
